In brackets after ≈: the same amount, converted by molar mass. Like-named read-outs stand apart in the source and are kept apart here.
Assays:
[1] = test system: P. vulg.; settings: planktonic; cited from earlier work
[2] = test system: Aerobic Bacterial Biofilms; experiment: Log reduction of sessile microorganisms in aerobic biofilm (Example 2, Procedure A); format: cell-based, predominantly Pseudomonas species; settings: for log reduction at 50 ppm / log reduction at 100 ppm / log reduction at 200 ppm: Pseudomonas, 7.4 represents complete kill
Experimental: (§1) Approximately 20 ml of sterile Bacto TGE broth (Difco Labs) were placed in a sterile Petri dish (15×100 mm). To this media, 10 ml of a 24 hour culture of the aerobic organisms to be tested were added. Sterile, stainless steel penicylinders (10 mm O.D., 7 mm I.D., 10 mm long) were then placed in the inoculated media. The cylinders were placed in the dish either on-end or on-side. The Petri dish containing the cylinders was then incubated at 37° C. for 48 hours. At that time, cylinders were individually removed aseptically using forceps, blotted on sterile filter paper, and washed three times by dipping in sterile saline solution. This procedure was used to ensure that only organisms that were firmly attached in the biofilm were tested.
(§2) Two biofilm-coated cylinders were then carefully dropped into separate 10 ml test tubes containing biocide solutions of varying concentrations. After one hour and four hour contact times, a cylinder was aseptically transferred to a fresh tube of TGE broth and vortexed for 30 seconds to remove all sessile organisms. The resulting broth suspension was then serially diluted and plated using TGE agar for enumeration. Plates were incubated for 48 hours at 37° C. before counting.
(§3) To minimize error, all biocide concentration/contact time points reported below were tested in duplicate and the results averaged. Results are reported as log reduction of microorganisms compared to control cylinders treated in the same manner except that no biocide was employed.
Respective samples of the five compounds were tested against the sessile microorganisms embedded in biofilms. The biofilm was comprised of a variety of microorganisms, but contained predominantly Pseudomonas species cultivated using Procedure A. The number of organisms were counted after one hour and four hours of contact.

[3] = test system: P. aerug.; settings: planktonic; cited from earlier work
[4] = test system: K. pneum.; settings: planktonic; cited from earlier work
[5] = test system: S. aureus; settings: planktonic; cited from earlier work
[6] = test system: C. albic.; settings: planktonic; cited from earlier work
[7] = test system: Aerobic Bacterial Biofilms (oil field isolate); experiment: Log reduction of sessile aerobic bacteria in biofilm on stainless steel penicylinders (Example 1, Procedure A); format: cell-based, predominantly Pseudomonas species; settings: for log reduction at 250 ppm / log reduction at 500 ppm / log reduction at 1000 ppm / log reduction at 10 ppm / log reduction at 25 ppm / log reduction at 50 ppm / log reduction at 5 ppm: Pseudomonas; for log reduction at 10 ppm / log reduction at 25 ppm / log reduction at 50 ppm / log reduction at 5 ppm: 5.1 represents complete kill
Experimental: as §1, §2, §3
An oil field isolate of aerobic bacteria was utilized in all aerobic biofilm experiments. This culture was taken from a water-flooded oil well in Texas and was tentatively identified as containing predominantly Pseudomonas species. The biofilms were developed following above Procedure A. Respective samples were treated with various concentrations of the biocides listed below and the number of bacteria were counted after one hour and four hours of contact.

[8] = test system: Sessile Anaerobic Bacterial Biofilms (SRB); experiment: Log reduction of sessile sulfate-reducing bacteria in biofilm on mild steel penicylinders (Example 3, Procedure B); format: cell-based; settings: for log reduction at 100 ppm / log reduction at 250 ppm / log reduction at 10 ppm / log reduction at 25 ppm / log reduction at 50 ppm: 4 represents complete kill; for concentration required to achieve the same level of effectiveness as OPA: SRB biofilm, compared with OPA 10 ppm, 4 hours
Experimental: SRB-containing media were prepared as follows:
14.5 g of Bacto Sulfate API Broth (Difco Labs) and 2.0 g Bacto Agar (Difco Labs) were added to 1000 ml distilled water. The solution was heated and stirred until all components were dissolved. A 1% solution of sodium thioglycollate in distilled water was also prepared. Both solutions were then autoclaved at 121° C. for 30 minutes. After cooling, 5 g of the sodium thioglycollate solution was added to the media mixture.
Mild steel penicylinders (10 mm O.D., 7 mm I.D., 10 mm long) were cleaned by soaking for 10 minutes in 0.5% hydrochloric acid. Cylinders were then rinsed three times with distilled water and dried before use.
A 4 oz screw-capped bottle was purged with argon to remove oxygen, capped and then autoclaved. After cooling, 100 ml of sterile SRB media was added to this bottle. Cleaned penicylinders were then added along with 10 ml of a five day old SRB culture. All operations were conducted under a constant stream of argon to minimize oxygen levels. The bottle was then incubated for 7-14 days (depending on the SRB used) at 37° C. At that time, cylinders were individually removed aseptically using forceps and blotted on sterile filter paper.
Two biofilm-coated cylinders were then carefully dropped into separate 10 ml test tubes of deaerated biocide solutions of varying concentrations. All of the biocide and control solutions contained 30 ppm of a non-ionic nonyl phenol ethoxylate surfactant (TERGITOL® NP-4, Union Carbide Chemicals and Plastics Company Inc., Danbury, CT). After one hour and four hour contact times, a cylinder was removed, blotted on sterile filter paper, and placed into a commercially available SRB vial (C&S Laboratories, Tulsa, OK). The vial was then sonicated (Bransonic Model 12) for 30 seconds to remove sessile organisms. The resulting solution was serially diluted into additional SRB vials for enumeration. Vials were grown for 28 days at 37° C. before reading. Blackening of the vials was used as an indication of growth.
as §3
A SRB culture was obtained from a water-flooded oil well in Alaska. The bacteria were then cultivated on the walls of the steel penicylinders using Procedure B described above. Respective samples were then contacted with glutaraldehyde, formaldehyde or OPA for one and four hours with the following results: […]

[9] = test system: sessile microorganisms; settings: Pope et al.; cited from earlier work
[10] = test system: biofilm deposits; settings: dynamic laboratory reactors, waterflood pipeline conditions; Eagar et al.; cited from earlier work
[11] = test system: Planktonic Anaerobic Bacteria (SRB); experiment: Log reduction of planktonic sulfate-reducing bacteria (Example 4, Procedure C); format: cell-based
Experimental: A stock culture of the SRB to be tested was grown in a commercial SRB vial for 4 days at 37° C. The vial was then purged for approximately 30 seconds with argon to remove excess hydrogen sulfide. At that time a series of SRB vials were each inoculated with 0.1 ml of this stock culture. These vials were then incubated at 37° C. for 4 days. Each of these vials was then purged with argon. Appropriate stock solutions of biocide were prepared so that additions of 0.1-1.0 ml provided the desired concentration of biocide in each SRB vial. After 1 hour and 4 hour contact times, 1 ml aliquots were removed from each vial and were injected into fresh SRB vials. These vials were then serially diluted for enumeration.
as §3
The same sample of planktonic SRB as used in Example 3 was cultivated following above Procedure C. Respective samples of bacteria were treated with varying concentrations of OPA and the log reduction in the number of bacteria was recorded in each case.

[12] = Solubility in water; format: physicochemical; settings: 25° C., read-out: limit of solubility in water
[13] = 1 hr contact, read-out: log reduction after 1 hr
[14] = 4 hr contact, read-out: log reduction after 4 hr
[15] = 1 h, read-out: log reduction after 1 hr
[16] = 4 h, read-out: log reduction after 4 hr

For `O=Cc1ccccc1C(=O)O` [CB, 2-carboxybenzaldehyde], the MIC [1] is listed as 1.0 mMole %, the log reduction at 50 ppm [2, 13] is listed as 0 and the log reduction at 50 ppm [2, 14] is listed as 0. The log reduction at 100 ppm [2, 13] was 0, the log reduction at 100 ppm [2, 14] was 0.1 and the log reduction at 200 ppm [2, 13] was 0.6. The log reduction at 200 ppm [2, 14] was 0.5, the MIC [3] was 2.5 mMole % and the MIC [4] was 2.5 mMole %. The MIC [5] was 0.5 mMole % and the MIC [6] was 1.0 mMole %.
In the case of `O=Cc1cccc(O)c1O` [DHB, 2,3-dihydroxybenzaldehyde], the MIC [1] is listed as 0.25 mMole %, the log reduction at 50 ppm [2, 13] is listed as 0 and the log reduction at 50 ppm [2, 14] is listed as 0. The log reduction at 100 ppm [2, 13] was 0.5, the log reduction at 100 ppm [2, 14] was 0 and the log reduction at 200 ppm [2, 13] was 1.1. For the same molecule, the log reduction at 200 ppm [2, 14] was 0.2, the MIC [3] was 0.25 mMole % and the MIC [4] was 0.05 mMole %. The MIC [5] was 0.25 mMole % and the MIC [6] was under 0.025 mMole %.
With `C=O` [FA, formaldehyde] the log reduction at 250 ppm [7, 15] was 2, the log reduction at 500 ppm [7, 15] was 2.6 and the log reduction at 1000 ppm [7, 15] was 5.1. The log reduction at 250 ppm [7, 16] was 5.1, the log reduction at 500 ppm [7, 16] was 5.1 and the log reduction at 1000 ppm [7, 16] was 5.1. It also gave a log reduction at 100 ppm [8, 13] of under 2, a log reduction at 100 ppm [8, 14] of under 2 and a log reduction at 250 ppm [8, 13] of under 2. For the same molecule, the log reduction at 250 ppm [8, 14] was 3, the “concentration required to achieve the same level of effectiveness as OPA” value [8] was “Significantly higher concentrations” and the performance in tests [9] was “performed well in one test but poorly in another test”.
With `O=CCCCC=O` [GA, glutaraldehyde] the log reduction at 10 ppm [7, 13] was 0.1, the log reduction at 10 ppm [7, 14] was 0.7 and the log reduction at 25 ppm [7, 13] was 0.3. The log reduction at 25 ppm [7, 14] was 1.7, the log reduction at 50 ppm [7, 13] was 5.1 and the log reduction at 50 ppm [7, 14] was 5.1. The log reduction at 100 ppm [8, 13] was 3, the log reduction at 100 ppm [8, 14] was 4 and the “concentration required to achieve the same level of effectiveness as OPA” value [8] was “Significantly higher concentrations”. For the same molecule, the “removing biofilm deposits and controlling number of viable organisms” value [10] was “effective in removing biofilm deposits and controlling the number of viable organisms”.
`O=Cc1ccccc1C=O` [OPA, ortho-phthalaldehyde] showed a log reduction at 100 ppm ([11]; 1 hr contact, 4 represents complete kill, read-out: log reduction after 1 hr) of 0, a log reduction at 100 ppm ([11]; 4 hr contact, 4 represents complete kill, read-out: log reduction after 4 hr) of 0 and a log reduction at 500 ppm ([11]; 500 ppm, 1 hr contact, 4 represents complete kill, read-out: log reduction after 1 hr) of 2 to 3. It also gave a log reduction at 250 ppm [11, 15] of 1, a log reduction at 250 ppm [11, 16] of 1 to 2 and an MBC ([11]; Example 4, read-out: concentration for complete kill of planktonic SRB (not achieved at concentrations as high as)) of over 500 µg/mL. For the same molecule, the MIC [1] was 0.25 mMole %, the log reduction at 50 ppm [2, 13] was 2.9 and the log reduction at 50 ppm [2, 14] was 7.4. It also gave a log reduction at 100 ppm [2, 13] of 3.4, a log reduction at 100 ppm [2, 14] of 7.4 and a log reduction at 200 ppm [2, 13] of 6. The log reduction at 200 ppm [2, 14] was 7.4, the “effectiveness against sessile microorganisms in biofilms versus other aldehydes” value ([2]; other aldehydes at four times the concentration of OPA) was “surprising effectiveness” and the MIC [3] was 0.25 mMole %. For the same molecule, the solubility [12] was about 50 mg/mL (≈ 373000 µM), the log reduction at 5 ppm [7, 13] was 0.8 and the log reduction at 5 ppm [7, 14] was 5.1. It also gave a log reduction at 10 ppm [7, 13] of 1.4, a log reduction at 10 ppm [7, 14] of 5.1 and a log reduction at 25 ppm [7, 13] of 5.1. The log reduction at 25 ppm [7, 14] was 5.1, the “effectiveness versus glutaraldehyde and formaldehyde” value ([7]; aerobic biofilm, Example 1) was “outperformed both glutaraldehyde and formaldehyde” and the MIC [4] was 0.25 mMole %. The MIC [5] was 0.25 mMole %, the MIC [6] was 0.25 mMole % and the log reduction at 10 ppm [8, 13] was 3. For the same molecule, the log reduction at 10 ppm [8, 14] was 4, the log reduction at 25 ppm [8, 13] was 3 and the log reduction at 25 ppm [8, 14] was 4. The log reduction at 50 ppm [8, 13] was 4, the log reduction at 50 ppm [8, 14] was 4 and the MBC ([8]; Example 3, read-out: OPA concentrations at which a complete kill of sessile microorganisms occurred (as low as)) was 10 to 50 µg/mL (≈ 74.6 to 373 µM). It also gave an MBC ([8]; within 4 hours, read-out: concentration that completely kills all sessile anaerobic organisms in the biofilm) of 10 µg/mL (≈ 74.6 µM).
In the case of `COc1cccc(C=O)c1O` [OVA, ortho-vanillin], the MIC [1] is listed as 0.25 mMole %, the log reduction at 50 ppm [2, 13] is listed as 0 and the log reduction at 50 ppm [2, 14] is listed as 0. The log reduction at 100 ppm [2, 13] was 0, the log reduction at 100 ppm [2, 14] was 0 and the log reduction at 200 ppm [2, 13] was 0.3. The log reduction at 200 ppm [2, 14] was 0.3, the MIC [3] was 0.5 mMole % and the MIC [4] was 0.25 mMole %. The MIC [5] was 0.5 mMole % and the MIC [6] was 0.25 mMole %.
In the case of `O=Cc1ccccc1O` [SA, salicylaldehyde], the MIC [1] is listed as 0.25 mMole %, the log reduction at 50 ppm [2, 13] is listed as 0 and the log reduction at 50 ppm [2, 14] is listed as 0. For the same molecule, the log reduction at 100 ppm [2, 13] was 0, the log reduction at 100 ppm [2, 14] was 0 and the log reduction at 200 ppm [2, 13] was 0.2. For the same molecule, the log reduction at 200 ppm [2, 14] was 0.2, the MIC [3] was 0.25 mMole % and the MIC [4] was 0.25 mMole %. For the same molecule, the MIC [5] was 0.25 mMole % and the MIC [6] was 0.25 mMole %.

Reference: patent US5128051A, “Method for the control of biofouling” (Union Carbide Chemicals & Plastics Technology Corporation, priority 1991, dated 1992)
